Counter-ions that a name gives are not always drawn.
Key:
Assay type in all cases: cell-based
A172 glioblastoma cells = assay: Acidic media pH induced lysosome distribution, LAMP-1 IF imaging; conditions: EIPA, low pHe media
Description: A172 glioblastoma cells were treated overnight with 5 or 10 μM deptropine or pizotifen or with the deptropine or pizotifen in combination at 5 μM concentration. The next day, media was change to low pHe media containing deptropine or pizotifen and the cells were incubated for an additional 2 h. EIPA is a known inhibitor of lysosomal outward movement and represents the positive control. At the end of the incubation time, cells were fixed and stained for LAMP-1, filamentous actin and nuclei. Representative merged IF images depicting the effect of pHe 7.4, pHe 6.4, DMSO or deptropine and pizotifen on the distribution of lysosomes in A172 glioblastoma cells. On color versions of the Figure, red puncta are lysosomes, blue is nuclei and green is actin. As could be seen, lysosomes appear more peripherally distributed in A172 glioma cells than in cells treated with concentrations of 5 to 10 micromolar deptropine or pizotifen.
Cells were treated as described above with FIG. 2 but included a concentration of 0.1 micromolar and 1 micromolar deptropine and pizotifen.
Turning to FIG. 7, an additional aspect of this technology is how quickly deptropine and pizotifen act to move lysosomes towards the nucleus. […] A172 glioblastoma cells were treated with the 5 or 10 μM deptropine or pizofifen for 2 h and then with low pHe media containing the drugs for an additional 2 hours. At the end of incubation time, cells were fixed and stained for LAMP-1, filamentous actin, and nuclei. Representative merged IF images depicting the effect of DMSO, 5 and 10 μM deptropine or pizotifen upon 4 hours on the distribution of lysosomes, colored red in color images, in A172 glioblastoma cells. Also shown in color images are actin, colored green, and nuclei, colored blue.

[1] = system: DU145 prostate cancer cells; assay: High content imaging-based screen (Cellomics) for lysosome migration inhibitors; conditions: 16 hours; for hit in screen for lysosome migration inhibitors (mean ring spot count): pH 6.4 media, 2 micrograms per ml
Description: DEVELOPMENT OF A HIGH CONTENT IMAGING-BASED SCREEN: The followings process was followed to identify chemicals that were lysosome migration inhibitors. DU145 prostate cancer cells were seeded in 96 well flat bottom black walled plates at 4,500 cells per well. All compounds and controls were exposed to RPMI bicarbonate buffered media (pH 6.4). RPMI buffered media titrated at pH of 6.4-6.8 was added to column 12 after the media was removed and serves as negative control (low acidic pH so lysosomes move out). […] The 4 compound libraries chosen to screen were the NIH Clinical Collection (450 drugs), Prestwick (1200 drugs), Prestwick phytochemical and the Green Pharma collection (xx drugs). Compounds were diluted with buffered RPMI media to 2 micrograms per ml concentrations. Individual compounds to be screened were added robotically as a single compound per well through columns 2-11. Plates were incubated at 37 degrees in 5% CO2 for 16 hours then the medium was removed and the cells were fixed with 4% cold paraformaldehyde (Sigma-Aldrich) for 20 minutes at 4 degrees. Fixed cells were washed once with PBS. To stain lysosomes, cells were incubated for 1 hour with LAMP1 antibody (H4A3) diluted in BSP (containing 0.25% BSA and 0.1% saponin in PBS) at 1/200. Cells were then washed with PBS 3 times then incubated for 1 hour with Dylight Donkey anti-mouse diluted at 1/200 in BSP. To stain the nucleus, cells were then washed with PBS 3 times and incubated for 20 minutes with 1×DAPI diluted in PBS. DAPI was washed off with PBS and cells were maintained in PBS for the duration of the screening process. Plates were mounted and read in a Cellomics Arrayscan automated fluorescence imager. The Cellomics platform allows for high content throughput screening by combining fluorescence microscopy with a multi-parameter image analysis. Cells were photographed using 20× objective in 2 fluorescent channels. A total of 15 different fields in each well, and at least 300 cells were imaged per well. The biocompartmental analysis algorithm was used to identify each cell by its nucleus (channel 1 recognized by the DAPI stain) and to generate a cytoplasmic mask (ring) of 12 pixels width in which the inner ring was 6 pixels away from the nucleus. The algorithm calculates the number of lysosomes inside the ring as indicated by fluorescent LAMP-1 positive puncta in channel 2 as a mean ring spot count. Therefore, when lysosomes move away from the nucleus and disperse throughout the cytoplasm, the number of spots representing lysosomes inside the cytoplasmic ring increases (low pH conditions). By contrast, lysosomes cluster near the nucleus the numbers of spot inside the cytoplasmic ring decreases (EIPA treated).
Z′-factor is a simple statistical coefficient used to assess performance and quality of the assay in high-throughput screening. It is calculated with the formula: Z′=1-(3σct+3σcb)/|μct−μcb|, where p indicates mean, a represents standard deviation, “ct” indicates the positive control, “cb” indicates the negative control. […] If the Z′ is more than 0.5, the assay is considered to be high quality assay.
The Z′ factor of the assay was determined from the EIPA (positive control) and low pH (negative control). Experiments were run in duplicate. Only plates with positive Z′ factor was used for analysis.

Erk signaling pathway = assay: Lysosome inward movement in the presence of the MAPK inhibitor U0126, and Erk western blot; conditions: deptropine and pizotifen 5 μM, 4 hours, A172 cells
Description: Turning to FIG. 8, deptropine and pizotifen are shown to act through the Erk signaling pathway. In this experiment, A172 cells were treated with deptropine and pizotifen at 5 μM concentrations for 4 hours in the presence of the MAPK inhibitor U0126. I.F. microscopy was then performed. This helped allow the determination of the mechanism of action of deptropine and pizotifen.

## CCN(c1nc(N)c(C(=O)NC(=N)N)nc1Cl)C(C)C [EIPA]
A172 glioblastoma cells
  acidic media induced lysosome redistribution, positive control: prevented lysosome redistribution and induced clustering of lysosomes around the nucleus
[1]; EIPA 25 uM
  lysosome position, positive control: lysosomes near the nucleus

## N#CC(=C(/N)Sc1ccccc1N)/C(C#N)=C(\N)Sc1ccccc1N [U0126]
Erk signaling pathway
  effect of U0126 on inward movement of lysosomes induced by deptropine and pizotifen: prevents the action of deptropine and pizotifen

## CCCSc1ccc2nc(NC(=O)OC)[nH]c2c1 [albendazole]
[1]
  hit in screen for lysosome migration inhibitors (mean ring spot count): hits

## COc1cc2c(c(OC)c1OC)-c1ccc(OC)c(=O)cc1[C@@H](NC(C)=O)CC2 [colchicine]
[1]
  hit in screen for lysosome migration inhibitors (mean ring spot count): hits

## CC(C)[C@@]1(NC(=O)[C@@H]2C[C@@H]3c4cccc5[nH]cc(c45)C[C@H]3N(C)C2)O[C@@]2(O)[C@@H]3CCCN3C(=O)[C@H](Cc3ccccc3)N2C1=O [dihydroergocristine mesylate, (5′α,10α)-9,10-Dihydro-12′-hydroxy-2′-(1-methylethyl)-5′-(phenylmethyl)-ergotaman-3′, 6′, 18-trione mesylate]
[1]
  hit in screen for lysosome migration inhibitors (mean ring spot count): hits

## COC(=O)Nc1nc2ccc(Sc3ccccc3)cc2[nH]1 [fenbendazole]
[1]
  hit in screen for lysosome migration inhibitors (mean ring spot count): hits

## COc1ccc2c(c1)[nH]c1c(C)nccc12 [harmine]
[1]
  hit in screen for lysosome migration inhibitors (mean ring spot count): hit

## COC(=O)Nc1nc2ccc(C(=O)c3ccccc3)cc2[nH]1 [mebendazole]
[1]
  hit in screen for lysosome migration inhibitors (mean ring spot count): hits

## OC(c1cc(C(F)(F)F)nc2c(C(F)(F)F)cccc12)C1CCCCN1 (stereo not drawn) [mefloquine, [(R*,S*)-2,8-bis(trifluoromethyl)quinolin-4-yl]-(2-piperidyl)methanol]
[1]
  hit in screen for lysosome migration inhibitors (mean ring spot count): hit

## O=C(Nc1ccc([N+](=O)[O-])cc1Cl)c1cc(Cl)ccc1O [niclosamide]
[1]
  hit in screen for lysosome migration inhibitors (mean ring spot count): hits

## CC(=O)O[C@H]1C(=O)[C@@]2(C)[C@H]([C@H](OC(=O)c3ccccc3)[C@]3(O)C[C@H](OC(=O)[C@H](O)[C@@H](NC(=O)c4ccccc4)c4ccccc4)C(C)=C1C3(C)C)[C@]1(OC(C)=O)CO[C@@H]1C[C@@H]2O [paclitaxel]
[1]
  hit in screen for lysosome migration inhibitors (mean ring spot count): hits

## COc1cc([C@@H]2c3cc4c(cc3[C@H](O)[C@H]3COC(=O)[C@H]23)OCO4)cc(OC)c1OC [podophyllotoxin]
[1]
  hit in screen for lysosome migration inhibitors (mean ring spot count): hits

## O=C(c1ccc(OCCN2CCCCC2)cc1)c1c(-c2ccc(O)cc2)sc2cc(O)ccc12 [raloxifene]
[1]
  hit in screen for lysosome migration inhibitors (mean ring spot count): hits

## CC[C@]1(O)C[C@H]2CN(CCc3c([nH]c4ccccc34)[C@@](C(=O)OC)(c3cc4c(cc3OC)N(C=O)[C@H]3[C@@](O)(C(=O)OC)[C@H](OC(C)=O)[C@]5(CC)C=CCN6CC[C@]43[C@@H]65)C2)C1 [vincristine]
[1]
  hit in screen for lysosome migration inhibitors (mean ring spot count): hits

## CC[C@]1(O)C[C@@H]2CN(CCc3c([nH]c4ccccc34)[C@@](C(=O)OC)(c3cc4c(cc3OC)N(C)[C@H]3[C@@](O)(C(N)=O)[C@H](O)[C@]5(CC)C=CCN6CC[C@]43[C@@H]65)C2)C1 [vindesine]
[1]
  hit in screen for lysosome migration inhibitors (mean ring spot count): hits

## CCC1=C[C@@H]2CN(C1)Cc1c([nH]c3ccccc13)[C@@](C(=O)OC)(c1cc3c(cc1OC)N(C)[C@H]1[C@@](O)(C(=O)OC)[C@H](OC(C)=O)[C@]4(CC)C=CCN5CC[C@]31[C@@H]54)C2 [vinorelbine]
[1]
  hit in screen for lysosome migration inhibitors (mean ring spot count): hits

## dihydroergotoxine mesylate
[1]
  hit in screen for lysosome migration inhibitors (mean ring spot count): hits

From US20200330447A1, “CANCER TREATMENT VIA REPOSITIONED TRICYCLIC ANTI-DEPRESSANT-LIKE DRUGS AS ANTI-CANCER AGENTS AND NEW COMBINATIONS OF SUCH DRUGS” (Board of Supervisors of Louisiana State University and …, priority 2015, published 2020)
